In ChEMBL document CHEMBL4616632, “Discovery of Cyclic Boronic Acid QPX7728, an Ultrabroad-Spectrum Inhibitor of Serine and Metallo-β-lactamases” (J Med Chem, 2020):

Test system: Klebsiella pneumoniae
Assay: Inhibition of Klebsiella pneumoniae KP1009 CTX-M-15 assessed as minimum concentration of compound required to reduce the MIC of aztreonam to 4 ug/ml

| SMILES | MEC [µg/mL] |
| --- | --- |
| CO[C@H]1Cc2cccc(C(=O)O)c2OB1O | 10 |
| Nc1nnc(S[C@H]2Cc3ccc(OCC(F)F)c(C(=O)O)c3OB2O)s1 | > 20 |
| O=C(O)c1c(OCCF)ccc2c1OB(O)[C@@H](Sc1nncs1)C2 | 20 |
| O=C(O)c1c(OC(F)F)ccc2c1OB(O)[C@@H](Sc1nncs1)C2 | 20 |
| O=C(O)c1cccc2c1OB(O)[C@@H](Sc1ccccn1)C2 | > 10 |

The next lines start with the values.

| MEC [µg/mL] | SMILES |
| --- | --- |
| 5 | O=C(O)c1cccc2c1OB(O)[C@@H](Sc1nnc[nH]1)C2 |
| > 20 | CS[C@H]1Cc2cccc(C(=O)O)c2OB1O |
| > 20 | Cn1cnnc1S[C@H]1Cc2cccc(C(=O)O)c2OB1O |
| > 20 | Nc1nnc(S[C@H]2Cc3cccc(C(=O)O)c3OB2O)[nH]1 |

Test system: Escherichia coli
Assay: Inhibition of Escherichia coli KP308 SHV-5 assessed as minimum concentration of compound required to reduce the MIC of aztreonam to 4 ug/ml

| SMILES | MEC [µg/mL] |
| --- | --- |
| CO[C@H]1Cc2cccc(C(=O)O)c2OB1O | 2.5 |
| Nc1nnc(S[C@H]2Cc3ccc(OCC(F)F)c(C(=O)O)c3OB2O)s1 | > 20 |
| O=C(O)c1c(OCCF)ccc2c1OB(O)[C@@H](Sc1nncs1)C2 | 5 |
| O=C(O)c1c(OC(F)F)ccc2c1OB(O)[C@@H](Sc1nncs1)C2 | 2.5 |
| O=C(O)c1cccc2c1OB(O)[C@@H](Sc1ccccn1)C2 | > 10 |

More lines, now with the values ahead:

| MEC [µg/mL] | SMILES |
| --- | --- |
| > 40 | O=C(O)c1cccc2c1OB(O)[C@@H](Sc1nnc[nH]1)C2 |
| > 20 | CS[C@H]1Cc2cccc(C(=O)O)c2OB1O |
| > 20 | Cn1cnnc1S[C@H]1Cc2cccc(C(=O)O)c2OB1O |
| > 20 | Nc1nnc(S[C@H]2Cc3cccc(C(=O)O)c3OB2O)[nH]1 |

Test system: Escherichia coli
Assay: Inhibition of Escherichia coli EC302 TEM-10 assessed as minimum concentration of compound needed to reduce the MIC of aztreonam to 4 ug/ml

| SMILES | MEC [µg/mL] |
| --- | --- |
| CO[C@H]1Cc2cccc(C(=O)O)c2OB1O | 20 |
| Nc1nnc(S[C@H]2Cc3ccc(OCC(F)F)c(C(=O)O)c3OB2O)s1 | > 20 |
| O=C(O)c1c(OCCF)ccc2c1OB(O)[C@@H](Sc1nncs1)C2 | 20 |
| O=C(O)c1c(OC(F)F)ccc2c1OB(O)[C@@H](Sc1nncs1)C2 | 20 |
| O=C(O)c1cccc2c1OB(O)[C@@H](Sc1ccccn1)C2 | > 10 |

Second part, the molecule after the results:

| MEC [µg/mL] | SMILES |
| --- | --- |
| > 40 | O=C(O)c1cccc2c1OB(O)[C@@H](Sc1nnc[nH]1)C2 |
| > 20 | CS[C@H]1Cc2cccc(C(=O)O)c2OB1O |
| > 20 | Cn1cnnc1S[C@H]1Cc2cccc(C(=O)O)c2OB1O |
| > 20 | Nc1nnc(S[C@H]2Cc3cccc(C(=O)O)c3OB2O)[nH]1 |

Molecular target: Beta-lactamase (Klebsiella pneumoniae) (UniProt Q93LQ9)
Sequence (Q93LQ9 as listed by the source): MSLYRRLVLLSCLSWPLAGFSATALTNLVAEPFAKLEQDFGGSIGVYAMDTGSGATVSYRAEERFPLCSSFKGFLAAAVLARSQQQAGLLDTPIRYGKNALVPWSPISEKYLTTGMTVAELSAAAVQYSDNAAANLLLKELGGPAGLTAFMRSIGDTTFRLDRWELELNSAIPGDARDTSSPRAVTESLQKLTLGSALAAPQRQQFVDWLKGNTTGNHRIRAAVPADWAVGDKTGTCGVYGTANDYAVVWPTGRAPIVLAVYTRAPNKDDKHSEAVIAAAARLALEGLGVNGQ
Assay: Inhibition of Klebsiella pneumoniae KP1004 KPC-2 assessed as minimum concentration of compound needed to reduce the MIC of aztreonam to 4 ug/ml

| SMILES | MEC [µg/mL] |
| --- | --- |
| CO[C@H]1Cc2cccc(C(=O)O)c2OB1O | 0.3 |
| Nc1nnc(S[C@H]2Cc3ccc(OCC(F)F)c(C(=O)O)c3OB2O)s1 | 10 |
| O=C(O)c1c(OCCF)ccc2c1OB(O)[C@@H](Sc1nncs1)C2 | 5 |
| O=C(O)c1c(OC(F)F)ccc2c1OB(O)[C@@H](Sc1nncs1)C2 | 5 |
| O=C(O)c1cccc2c1OB(O)[C@@H](Sc1ccccn1)C2 | > 10 |

Other lines, results leading:

| MEC [µg/mL] | SMILES |
| --- | --- |
| > 40 | O=C(O)c1cccc2c1OB(O)[C@@H](Sc1nnc[nH]1)C2 |
| 2.5 | CS[C@H]1Cc2cccc(C(=O)O)c2OB1O |
| > 20 | Cn1cnnc1S[C@H]1Cc2cccc(C(=O)O)c2OB1O |
| > 20 | Nc1nnc(S[C@H]2Cc3cccc(C(=O)O)c3OB2O)[nH]1 |

Test system: Enterobacter cloacae
Assay: Inhibition of Enterobacter cloacae ECL1002 AmpC assessed as minimum concentration of compound needed to reduce the MIC of aztreonam to 4 ug/ml

| SMILES | MEC [µg/mL] |
| --- | --- |
| CO[C@H]1Cc2cccc(C(=O)O)c2OB1O | 2.5 |
| Nc1nnc(S[C@H]2Cc3ccc(OCC(F)F)c(C(=O)O)c3OB2O)s1 | > 20 |
| O=C(O)c1c(OCCF)ccc2c1OB(O)[C@@H](Sc1nncs1)C2 | > 20 |
| O=C(O)c1c(OC(F)F)ccc2c1OB(O)[C@@H](Sc1nncs1)C2 | > 20 |
| O=C(O)c1cccc2c1OB(O)[C@@H](Sc1ccccn1)C2 | > 10 |

More lines, now with the values ahead:

| MEC [µg/mL] | SMILES |
| --- | --- |
| > 40 | O=C(O)c1cccc2c1OB(O)[C@@H](Sc1nnc[nH]1)C2 |
| > 20 | CS[C@H]1Cc2cccc(C(=O)O)c2OB1O |
| > 20 | Cn1cnnc1S[C@H]1Cc2cccc(C(=O)O)c2OB1O |
| > 20 | Nc1nnc(S[C@H]2Cc3cccc(C(=O)O)c3OB2O)[nH]1 |

Test system: Klebsiella pneumoniae
Assay: Inhibition of Klebsiella pneumoniae KP1081 NDM-1 assessed as minimum concentration of compound required to reduce the MIC of biapenem to 1 ug/ml

| SMILES | MEC [µg/mL] |
| --- | --- |
| CO[C@H]1Cc2cccc(C(=O)O)c2OB1O | 0.6 |
| Nc1nnc(S[C@H]2Cc3ccc(OCC(F)F)c(C(=O)O)c3OB2O)s1 | 1.25 |
| O=C(O)c1c(OCCF)ccc2c1OB(O)[C@@H](Sc1nncs1)C2 | 0.6 |
| O=C(O)c1c(OC(F)F)ccc2c1OB(O)[C@@H](Sc1nncs1)C2 | 1.25 |
| O=C(O)c1cccc2c1OB(O)[C@@H](Sc1ccccn1)C2 | > 20 |

The next lines start with the values.

| MEC [µg/mL] | SMILES |
| --- | --- |
| < 0.3 | O=C(O)c1cccc2c1OB(O)[C@@H](Sc1nnc[nH]1)C2 |
| 0.6 | CS[C@H]1Cc2cccc(C(=O)O)c2OB1O |
| < 0.3 | Cn1cnnc1S[C@H]1Cc2cccc(C(=O)O)c2OB1O |
| < 0.3 | Nc1nnc(S[C@H]2Cc3cccc(C(=O)O)c3OB2O)[nH]1 |

Test system: Klebsiella pneumoniae
Assay: Inhibition of Klebsiella pneumoniae KP1054 VIM-1 assessed as minimum concentration of compound required to reduce the MIC of biapenem to 1 ug/ml

| SMILES | MEC [µg/mL] |
| --- | --- |
| CO[C@H]1Cc2cccc(C(=O)O)c2OB1O | 0.16 |
| Nc1nnc(S[C@H]2Cc3ccc(OCC(F)F)c(C(=O)O)c3OB2O)s1 | 0.3 |
| O=C(O)c1c(OCCF)ccc2c1OB(O)[C@@H](Sc1nncs1)C2 | 0.16 |
| O=C(O)c1c(OC(F)F)ccc2c1OB(O)[C@@H](Sc1nncs1)C2 | 1.25 |
| O=C(O)c1cccc2c1OB(O)[C@@H](Sc1ccccn1)C2 | > 20 |

Second part, the molecule after the results:

| MEC [µg/mL] | SMILES |
| --- | --- |
| 2.5 | O=C(O)c1cccc2c1OB(O)[C@@H](Sc1nnc[nH]1)C2 |
| < 0.3 | CS[C@H]1Cc2cccc(C(=O)O)c2OB1O |
| < 0.3 | Cn1cnnc1S[C@H]1Cc2cccc(C(=O)O)c2OB1O |
| < 0.3 | Nc1nnc(S[C@H]2Cc3cccc(C(=O)O)c3OB2O)[nH]1 |

Test system: Pseudomonas aeruginosa
Assay: Inhibition of Pseudomonas aeruginosa PAM 2035 AmpC assessed as minimum concentration of compound needed to reduce the MIC of aztreonam to 4 ug/ml

| MEC [µg/mL] | SMILES |
| --- | --- |
| 20 | Nc1nnc(S[C@H]2Cc3ccc(OCC(F)F)c(C(=O)O)c3OB2O)s1 |
| 20 | O=C(O)c1c(OCCF)ccc2c1OB(O)[C@@H](Sc1nncs1)C2 |
| 20 | O=C(O)c1c(OC(F)F)ccc2c1OB(O)[C@@H](Sc1nncs1)C2 |

Test system: Klebsiella pneumoniae
Assay: Inhibition of Klebsiella pneumoniae KP1160 IMP-26 assessed as minimum concentration of compound needed to reduce the MIC of meropenem to 1 ug/ml

| MEC [µg/mL] | SMILES |
| --- | --- |
| 1.25 | Nc1nnc(S[C@H]2Cc3ccc(OCC(F)F)c(C(=O)O)c3OB2O)s1 |
| 2.5 | O=C(O)c1c(OCCF)ccc2c1OB(O)[C@@H](Sc1nncs1)C2 |
| 20 | O=C(O)c1c(OC(F)F)ccc2c1OB(O)[C@@H](Sc1nncs1)C2 |
